The values below are quoted from earlier work in patent publication US8163753B2, “2,3-dihydro-6-nitroimidazo (2,1-b) oxazole compounds for the treatment of tuberculosis” (priority 2003, dated 2012).

The data set has as its system multi-drug-resistant Mycobacterium tuberculosis. As to conditions: literature report; cited from earlier work.

On to `CCC1Cn2cc([N+](=O)[O-])nc2O1` (stereo not shown) [CGI-17341], for which the “bactericidal action to multi-drug-resistant Mycobacterium tuberculosis” value is reported as “has a bactericidal action”.
